In publication PMC12220852, “An adamantane‐based ligand as a novel chemical tool for thermosensory TRPM8 channel therapeutic modulation” (The Febs Journal, 2025):
“Also recorded” adds a separate entry of the source. Where two headings read alike, the source gives them in different places.

Columns and labels:
[1] = target: T1, recombinant human TRPM8 stably expressed in HEK293 cells (hTRPM8) (Homo sapiens, UniProt Q7Z2W7); assay: Ca2+ microfluorimetry screen for agonist/antagonist activity in hTRPM8-HEK293 cells; assay type: cell-based; details: for Activity (agonist/antagonist): agonism = compound-induced Ca2+ influx, antagonism = modulation of WS-12-induced Ca2+ influx; for Hill coefficient: hTRPM8-HEK293 Ca2+ microfluorimetry dose-response; for EC50: half of channel activation
T1 construct: expressed in transfected cells
T1 sequence (Q7Z2W7 whole entry): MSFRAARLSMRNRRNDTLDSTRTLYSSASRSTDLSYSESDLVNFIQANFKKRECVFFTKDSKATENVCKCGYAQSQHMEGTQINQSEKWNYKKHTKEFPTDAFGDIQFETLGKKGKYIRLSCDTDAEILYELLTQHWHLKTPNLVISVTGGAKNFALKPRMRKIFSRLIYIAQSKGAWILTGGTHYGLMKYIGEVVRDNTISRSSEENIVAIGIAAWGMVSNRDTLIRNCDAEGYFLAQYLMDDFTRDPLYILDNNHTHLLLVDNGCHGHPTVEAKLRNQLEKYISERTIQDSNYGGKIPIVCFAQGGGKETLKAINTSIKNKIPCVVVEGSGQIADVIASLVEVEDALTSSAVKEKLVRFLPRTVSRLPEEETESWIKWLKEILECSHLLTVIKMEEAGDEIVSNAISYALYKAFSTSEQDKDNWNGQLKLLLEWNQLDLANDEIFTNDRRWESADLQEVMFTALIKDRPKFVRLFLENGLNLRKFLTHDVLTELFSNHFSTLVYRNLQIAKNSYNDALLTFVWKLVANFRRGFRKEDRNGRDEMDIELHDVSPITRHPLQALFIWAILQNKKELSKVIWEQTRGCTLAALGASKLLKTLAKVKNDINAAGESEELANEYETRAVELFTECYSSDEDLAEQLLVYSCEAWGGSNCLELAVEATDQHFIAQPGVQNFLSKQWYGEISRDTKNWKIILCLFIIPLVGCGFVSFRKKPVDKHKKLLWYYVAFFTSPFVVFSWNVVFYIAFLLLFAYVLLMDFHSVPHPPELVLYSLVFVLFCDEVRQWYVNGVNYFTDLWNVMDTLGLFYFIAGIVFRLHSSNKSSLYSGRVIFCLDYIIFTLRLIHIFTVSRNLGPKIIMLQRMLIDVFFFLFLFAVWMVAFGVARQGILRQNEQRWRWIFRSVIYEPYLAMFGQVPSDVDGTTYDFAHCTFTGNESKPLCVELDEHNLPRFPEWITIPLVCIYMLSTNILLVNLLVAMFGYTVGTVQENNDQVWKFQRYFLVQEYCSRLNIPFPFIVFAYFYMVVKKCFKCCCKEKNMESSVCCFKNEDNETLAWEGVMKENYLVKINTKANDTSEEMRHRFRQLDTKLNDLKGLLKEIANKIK
From the text: We first evaluated the series of compounds 20–29 synthesized using the Passerini‐Adamantane reaction. All compounds were screened for channel agonism and antagonism on recombinant human TRPM8 stably expressed in HEK293 cells (hTRPM8‐HEK293) with Ca^2+ microfluorimetry. […] Compound‐induced TRPM8‐mediated Ca^2+ influx was confirmed using untransfected HEK293 cells and the channel blocker AMTB. […] The concentration of compounds to reach half of channel activation (EC50) or to block half‐channel activity evoked by WS‐12 (IC50) are reported in Table 1, along with the percentage of maximal activation or blockade (Efficacy).
Assays were conducted to assess the channel activity of the recombinant hTRPM8 stably expressed in HEK‐293 cells. HEK‐293‐hTRPM8 cells were cultured in a monolayer using a DMEM GlutaMax with 10% FBS and 1% P/S and maintained at 37 °C in 5% CO2. For experiments, cells were prepared and seeded at the indicated densities. To evaluate compound effectiveness against hTRPM8 activity, microfluorometry‐based calcium flux assays were performed using Fluo‐4 NW Ca^2+ dye and fluorescence detection. HEK cell lines expressing hTRPM8 were seeded in 96‐well plates and incubated with the dye‐loading solution. Ion channel activity was measured using a plate reader, and fluorescence intensity changes were recorded following the addition of vehicle, compound at varying concentrations, and antagonist (10 μM AMTB). Data analysis included calculating the Z‐factor for each assay and normalizing compound effects to […]. Data were analyzed to determine the concentration exerting half‐maximal inhibition (IC50) or activation (EC50) of agonist‐induced calcium elevation, using GRAPHPAD PRISM8® software (Boston, MA, USA). All experiments were conducted in triplicate, and results are presented as mean ± standard deviation.

[2] = target: T1, recombinant human TRPM8 stably expressed in HEK293 cells (hTRPM8); assay: as above; assay type: cell-based; details: agonists vs WS-12, antagonists vs WS-12 response, read-out: Efficacy (percentage of maximal activation or blockade)
[3] = hTRPM8-HEK293, block of half channel activity evoked by WS-12, mean ± SD, N = 3, read-out: IC50
[4] = hTRPM8-HEK293, mean ± SD, N = 3

Compound | Activity (agonist/antagonist) ([1]; hTRPM8-HEK293) | IC50 [1, 3] [nM] | Hill coefficient ([1]; mean ± SD) | Emax [2] [%] | IC50 [1] [nM] | EC50 [1, 4] [nM] | fold lower agonist potency compared with α‐aminoacyl amide 32 ([1]; hTRPM8-HEK293, EC50 comparison) [fold]
O=C(COC(=O)c1ccccc1)NC12CC3CC(CC(C3)C1)C2 [Compound 20, 2‐((3S,5S,7S)‐adamantan‐1‐ylamino)‐2‐oxoethyl benzoate] | Antagonist | 1800 ± 1100 | 0.4 ± 1.2 | 60 | – | – | –
O=C(COC(=O)Cc1ccccc1)NC12CC3CC(CC(C3)C1)C2 [Compound 21, 2‐((3S,5S,7S)‐adamantan‐1‐ylamino)‐2‐oxoethyl 2‐phenylacetate] | Antagonist | – | 0.5 ± 2.3 | 44 | 1500 ± 1100 | – | –
CC(=O)OCC(=O)NC12CC3CC(CC(C3)C1)C2 [Compound 22, 2‐((3S,5S,7S)‐adamantan‐1‐ylamino)‐2‐oxoethyl acetate] | agonistic activity; also recorded: Agonist | – | 0.4 ± 1.3 | 64 | – | 1100 ± 1500 | –
CCCC(=O)OCC(=O)NC12CC3CC(CC(C3)C1)C2 [Compound 24, 2‐((3S,5S,7S)‐adamantan‐1‐ylamino)‐2‐oxoethyl butyrate] | agonistic activity; also recorded: Agonist | – | 0.6 ± 0.2 | 19 | – | 19000 ± 2000 | –
O=C(COC(=O)C1CCCC1)NC12CC3CC(CC(C3)C1)C2 [Compound 25, 2‐((3S,5S,7S)‐adamantan‐1‐ylamino)‐2‐oxoethyl cyclopentane carboxylate] | Antagonist | 45000 ± 2000 | 0.8 ± 3.0 | 57 | – | – | –
O=C(COC(=O)c1cccnc1)NC12CC3CC(CC(C3)C1)C2 [Compound 26, 2‐((3S,5S,7S)‐adamantan‐1‐ylamino)‐2‐oxoethyl nicotinate] | agonist activity | – | 0.4 ± 6.4 | 72 | – | 1900 ± 1600 | –
CC(=O)NCCCC(=O)OCC(=O)NC12CC3CC(CC(C3)C1)C2 [Compound 27, 2‐((3S,5S,7S)‐adamantan‐1‐ylamino)‐2‐oxoethyl 4‐acetamidobutanoate] | agonistic activity; also recorded: Agonist | – | 0.3 ± 1.6 | 60 | – | 600 ± 1200 | –
O=C(COC(=O)c1ccc(Cl)cc1)NC12CC3CC(CC(C3)C1)C2 [Compound 28, 2‐((3S,5S,7S)‐adamantan‐1‐ylamino)‐2‐oxoethyl 4‐chlorobenzoate] | agonist activity | – | 0.1 ± 0.2 | 87 | – | 1200 ± 1200 | –
O=C(COC(=O)c1cccc([N+](=O)[O-])c1)NC12CC3CC(CC(C3)C1)C2 [Compound 29, 2‐((3S,5S,7S)‐adamantan‐1‐ylamino)‐2‐oxoethyl 3‐nitrobenzoate] | Antagonist | 2300 ± 1100 | 0.5 ± 3.0 | 69 | – | – | –
O=C(CN(C(=O)c1ccccc1)C1CC1)NC12CC3CC(CC(C3)C1)C2 [Compound 30, N‐(2‐(((3S,5S,7S)‐adamantan‐1‐yl)amino)‐2‐oxoethyl)‐N‐cyclopropylbenzamide] | Agonist | – | 0.7 ± 1.6 | 92 | – | 1500 ± 1500 | –
CCCC(=O)N(CC(=O)NC12CC3CC(CC(C3)C1)C2)C1CC1 [Compound 31, N‐(2‐(((3S,5S,7S)‐adamantan‐1‐yl)amino)‐2‐oxoethyl)‐N‐cyclopropylbutyramide] | Agonist | – | 0.7 ± 2.5 | 72 | – | 300 | –
O=C(CN(C(=O)C1CCCC1)C1CC1)NC12CC3CC(CC(C3)C1)C2 [Compound 32, N‐(2‐(((3S,5S,7S)‐adamantan‐1‐yl)amino)‐2‐oxoethyl)‐N‐cyclopropylcyclopentanecarboxamide] | potent hTRPM8 agonist | – | 0.2 ± 1.5 | 56 | – | 400 | –
O=C(CN(C(=O)c1ccccc1-c1ccccc1)C1CC1)NC12CC3CC(CC(C3)C1)C2 [Compound 33, N‐(2‐(((3S,5S,7S)‐adamantan‐1‐yl)amino)‐2‐oxoethyl)‐N‐cyclopropyl‐[1,1′‐biphenyl]‐2‐carboxamide] | moderate antagonistic activity; also recorded: Antagonist | 1100 ± 1200 | 2.0 ± 7.8 | 48 | – | – | –
CC(=O)N(CC(=O)NC12CC3CC(CC(C3)C1)C2)C1CC1 [Compound 34, N‐((3S,5S,7S)‐adamantan‐1‐yl)‐2‐(N‐cyclopropylacetamido)acetamide] | Agonist | – | 0.3 ± 14 | 54 | – | 200 | –
O=C(CN(C(=O)c1cc2ccccc2s1)C1CC1)NC12CC3CC(CC(C3)C1)C2 [Compound 35, N‐(2‐(((3S,5S,7S)‐adamantan‐1‐yl)amino)‐2‐oxoethyl)‐N‐cyclopropylbenzo[b]thiophene‐2‐carboxamide] | moderate antagonistic activity; also recorded: Antagonist | 600 ± 1200 | 2.0 ± 4.3 | 40 | – | – | –
O=C(CN(C(=O)Cc1ccccc1)C1CC1)NC12CC3CC(CC(C3)C1)C2 [Compound 36, N‐(2‐(((3S,5S,7S)‐adamantan‐1‐yl)amino)‐2‐oxoethyl)‐N‐cyclopropyl‐2‐phenylacetamide] | Agonist | – | 2.3 ± 2.6 | 47 | – | 4900 ± 1700 | –
CC(=O)N(CC(=O)NC12CC3CC(CC(C3)C1)C2)C1CCCCC1 [Compound 37, N‐((3S,5S,7S)‐adamantan‐1‐yl)‐2‐(N‐cyclohexylacetamido)acetamide] | Agonist | – | 0.9 ± 9.2 | 48 | – | 200 | –
CC(=O)N(CC(=O)NC12CC3CC(CC(C3)C1)C2)C12CC3CC(CC(C3)C1)C2 [Compound 38, N‐((3S,5S,7S)‐adamantan‐1‐yl)‐2‐(N‐((3S,5S,7S)‐adamantan‐1‐yl)acetamido)acetamide] | Agonist | – | 0.3 ± 3.6 | 65 | – | 2000 ± 1400 | –
CCCCN(CC(=O)NC12CC3CC(CC(C3)C1)C2)C(C)=O [Compound 39, N‐((3S,5S,7S)‐adamantan‐1‐yl)‐2‐(N‐butylacetamido)acetamide] | Agonist | – | 0.4 ± 9.1 | 64 | – | 500 ± 1400 | –
CC(=O)N(CC(=O)NC12CC3CC(CC(C3)C1)C2)Cc1ccccc1 [Compound 40, N‐((3S,5S,7S)‐adamantan‐1‐yl)‐2‐(N‐benzylacetamido)acetamide] | Agonist | – | 0.7 ± 2.4 | 86 | – | 1400 ± 1400 | –
O=C(CN(Cc1ccccc1)C(=O)Cc1ccccc1)NC12CC3CC(CC(C3)C1)C2 [Compound 41, N‐(2‐(((3S,5S,7S)‐adamantan‐1‐yl)amino)‐2‐oxoethyl)‐N‐benzyl‐2‐phenylacetamide] | Agonist | – | 2.1 ± 1.0 | 49 | – | 900 ± 1100 | –
O=C(CN1CCN(C(=O)c2ccccc2)CC1)NC12CC3CC(CC(C3)C1)C2 [Compound 42, N‐((3S,5S,7S)‐adamantan‐1‐yl)‐2‐(4‐benzoylpiperazin‐1‐yl)acetamide] | Agonist | – | 0.4 ± 4.3 | 73 | – | 5400 ± 1500 | –
O=C(CN1CCN(C(=O)C2CCCC2)CC1)NC12CC3CC(CC(C3)C1)C2 [Compound 43, N‐((3S,5S,7S)‐adamantan‐1‐yl)‐2‐(4‐(cyclopentanecarbonyl)piperazin‐1‐yl)acetamide] | TRPM8 agonist | – | 0.6 ± 1.8 | 82 | – | 9300 ± 1500 | > 10
O=C(CN1CCN(C(=O)Cc2ccccc2)CC1)NC12CC3CC(CC(C3)C1)C2 [Compound 44, N‐((3S,5S,7S)‐adamantan‐1‐yl)‐2‐(4‐(2‐phenylacetyl)piperazin‐1‐yl)acetamide] | Agonist | – | 0.7 ± 4.0 | 69 | – | 9600 ± 1500 | –
CC(=O)N1CCN(CC(=O)NC23CC4CC(CC(C4)C2)C3)CC1 [Compound 45, 2‐(4‐acetylpiperazin‐1‐yl)‐N‐((3S,5S,7S)‐adamantan‐1‐yl)acetamide] | Agonist | – | 0.7 ± 2.1 | 54 | – | 2300 ± 1600 | –
